Laboratory results: ChEMBL document CHEMBL1201862, “PubChem BioAssay data set” (2004)
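Five compound concentrations were applied to cells in 96-well plates for 48 hours; endpoints were derived by simple linear interpolation of the resulting dose-response curve. Here, GI50 denotes the concentration required for 50% inhibition of growth.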 The source made the active and inactive calls. No stated cut-off is given here; in the data, active = GI50 up to about 1.1 µM and inactive = higher.

What was measured:
Experiment in all cases: NCI tumour cell line growth inhibition, 48 h
[1] = system: BT-549
[2] = system: COLO 205
[3] = system: HCC 2998
[4] = system: HT-29
[5] = system: Hs-578T
[6] = system: K562
[7] = system: KM12
[8] = system: M14
[9] = system: MDA-N
[10] = system: MOLT-4
[11] = system: NCI-H460
[12] = system: NCI-H522
[13] = system: NCI/ADR-RES
[14] = system: SF-295
[15] = system: SK-MEL-2
[16] = system: SK-OV-3
[17] = system: SN12C
[18] = system: SR
[19] = system: UACC-62
[20] = system: SF-539

Measured: GI50

CC(C)(C)OC(=O)NCCCCC1NC(=O)[C@@H]2Cc3c([nH]c4ccccc34)C(C3CCCCC3)N2C1=O (stereo not given in full)
inactive: [1] 47.6 µM | [2] 20.2 µM | [3] 13.9 µM | [4] 28.1 µM | [5] 23.6 µM | [6] 30.8 µM | [7] 23.6 µM | [8] 22.9 µM | [9] 25.4 µM | [10] 5.28 µM | [11] 29.2 µM | [12] 45.3 µM | [13] 57.9 µM | [14] 19.8 µM | [15] 26 µM | [16] 53.7 µM | [17] 39.1 µM | [18] 15.2 µM | [19] 32.4 µM

CC(=O)O.CN1CCN(CN2C(=O)C3C4C=CC(C3C2=O)C2C3C(=O)N(CN5CCN(C)CC5)C(=O)C3C42)CC1 (stereo not given)
inactive: [1] 25.5 µM | [2] 19 µM | [3] 22.2 µM | [4] 25.3 µM | [5] > 100 µM | [6] 22.2 µM | [7] 22.3 µM | [8] 18.9 µM | [9] 17.8 µM | [10] 20.2 µM | [11] 16.3 µM | [12] 18.6 µM | [13] 24.2 µM | [20] 21.1 µM | [17] 21.4 µM | [18] 13.4 µM | [19] 20.7 µM

C=C1C2CCC3(CCC4C5(C)CCCC4(C=[N+](CCO)C5)C3C2)C1O (stereo not given)
inactive: [1] > 100 µM | [2] > 100 µM | [3] > 100 µM | [4] > 100 µM | [5] > 100 µM | [6] > 10 µM | [7] > 100 µM | [8] > 100 µM | [9] > 100 µM | [11] > 100 µM | [12] > 100 µM | [13] > 100 µM | [14] > 100 µM | [20] > 100 µM | [15] > 100 µM | [16] > 100 µM | [17] > 100 µM | [18] > 100 µM | [19] > 100 µM

CNC(=O)CNC(=O)C(Cc1ccc(NC(=O)CCCCC(C)=O)cc1)NC(=O)C(CCC(=O)OCc1ccccc1)NC(=O)OC(C)(C)C (stereo not given)
inactive: [1] > 100 µM | [2] > 100 µM | [3] > 100 µM | [4] > 100 µM | [5] > 100 µM | [6] > 100 µM | [7] > 100 µM | [8] > 100 µM | [9] > 100 µM | [10] > 100 µM | [11] > 100 µM | [12] > 100 µM | [13] > 100 µM | [14] > 100 µM | [20] > 100 µM | [16] > 100 µM | [17] > 100 µM | [18] > 100 µM | [19] > 100 µM

Cc1ccc(C2=Nc3cc(C)c(Cl)cc3S(=O)(=O)NN2)cc1
inactive: [1] > 100 µM | [2] > 100 µM | [3] > 100 µM | [4] > 100 µM | [5] > 100 µM | [6] 36.3 µM | [7] > 100 µM | [8] > 100 µM | [9] > 100 µM | [10] 37.9 µM | [11] > 100 µM | [12] > 100 µM | [13] > 100 µM | [14] > 100 µM | [20] > 100 µM | [16] > 100 µM | [17] > 100 µM | [18] 20 µM | [19] 56.9 µM

N=C1OC(CN2CCN(c3ccccc3)CC2)CN1C(=O)Nc1ccccc1 (stereo not given)
inactive: [1] > 100 µM | [2] > 100 µM | [3] > 100 µM | [4] > 100 µM | [5] > 100 µM | [6] 60.5 µM | [7] > 100 µM | [8] > 100 µM | [9] > 100 µM | [10] > 100 µM | [11] > 100 µM | [12] 39.7 µM | [13] > 100 µM | [14] > 100 µM | [15] > 100 µM | [16] > 100 µM | [17] > 100 µM | [18] 57.7 µM | [19] > 100 µM

CCOC(=O)C(NCc1cccc(C(F)(F)F)c1)(NC(=O)CC)C(F)(F)F (stereo not given)
inactive: [1] > 100 µM | [2] > 100 µM | [3] > 100 µM | [4] > 100 µM | [5] > 100 µM | [6] > 100 µM | [7] > 100 µM | [8] > 100 µM | [9] > 100 µM | [10] 82.6 µM | [12] > 100 µM | [13] > 100 µM | [14] > 100 µM | [20] > 100 µM | [15] > 100 µM | [16] > 100 µM | [17] > 100 µM | [18] > 100 µM | [19] 96.6 µM

CCOC(=O)c1cc(Br)c(-c2onc(C)c2Br)n1C
inactive: [1] 41.4 µM | [2] 28.4 µM | [3] 85.9 µM | [5] 10.8 µM | [6] 30.5 µM | [7] 21.8 µM | [8] 40.6 µM | [9] 43 µM | [10] 15 µM | [11] 40 µM | [12] 19.1 µM | [13] 37.2 µM | [14] 23.9 µM | [20] > 100 µM | [15] 36.6 µM | [16] 21.9 µM | [17] 23.1 µM | [18] 20.5 µM | [19] 27.9 µM

O=c1cc(NNc2cccc(Cl)c2)[nH]c(=O)[nH]1
inactive: [1] > 100 µM | [2] 42.1 µM | [3] 53 µM | [4] 80.2 µM | [5] > 100 µM | [6] 29 µM | [7] 45.5 µM | [8] 16.7 µM | [9] 73.8 µM | [10] 19.8 µM | [11] > 100 µM | [12] 17.5 µM | [13] > 100 µM | [20] > 100 µM | [15] 42.4 µM | [16] > 100 µM | [18] 4.29 µM | [19] 31.6 µM

COc1ccc(C2(CC(C)C)CCNC2)cc1OC (stereo not given)
inactive: [1] > 100 µM | [2] > 100 µM | [3] 12.9 µM | [4] 39.1 µM | [5] > 100 µM | [6] > 100 µM | [7] > 100 µM | [8] > 100 µM | [9] > 100 µM | [11] > 100 µM | [12] > 100 µM | [13] > 100 µM | [14] > 100 µM | [15] > 100 µM | [16] > 100 µM | [17] > 100 µM | [18] 76.4 µM | [19] > 100 µM

Nc1cc2ncnn2c(SCC(=O)N/N=C/C(Br)=C\c2ccccc2)n1
inactive: [1] 17.3 µM | [2] 19.1 µM | [3] 19.9 µM | [4] 14.8 µM | [5] 23.1 µM | [6] 12.8 µM | [7] 17.9 µM | [9] 16.2 µM | [10] 12.4 µM | [11] 17.3 µM | [12] 10.6 µM | [13] 25.5 µM | [14] 21.8 µM | [20] 16.7 µM | [17] 17.3 µM | [18] 10.6 µM | [19] 7.23 µM

O=c1cc2oc3ccc4ccccc4c3cc-2c(=O)[nH]1
inactive: [1] 1.34 µM | [2] 15.3 µM | [3] 16.9 µM | [4] 16 µM | [5] 24.4 µM | [6] 19.8 µM | [7] 20 µM | [8] 18.2 µM | [9] 11.3 µM | [10] 2.25 µM | [11] 22.9 µM | [12] 9.12 µM | [13] 17.5 µM | [14] 20.7 µM | [20] 9.79 µM | [15] 17.3 µM | [16] 20.3 µM | [18] 2.62 µM | [19] 17.9 µM

COC(=O)C12C3C4(C(=O)OC)C1C1(C(=O)OC)C2C3(C(=O)OC)C41C(=O)N(C(C)C)C(C)C (stereo not given)
inactive: [1] > 100 µM | [2] > 100 µM | [3] > 100 µM | [4] > 100 µM | [5] > 100 µM | [6] > 100 µM | [7] > 100 µM | [8] > 100 µM | [9] > 100 µM | [10] > 100 µM | [11] > 100 µM | [12] > 100 µM | [13] > 100 µM | [14] > 100 µM | [20] > 100 µM | [15] > 100 µM | [17] > 100 µM | [18] > 100 µM | [19] > 100 µM

C[C@@H]1CC(=O)[C@@]2(C)[C@](O)(CCC3O[C@]32C)[C@@]12CC(c1ccoc1)OC2=O (stereo not given in full)
inactive: [1] 68.2 µM | [2] 65 µM | [3] > 100 µM | [4] 48.5 µM | [5] 33.8 µM | [6] 39.1 µM | [7] > 100 µM | [8] 72.4 µM | [9] 33.5 µM | [10] 23 µM | [11] 66.7 µM | [12] 45.6 µM | [13] 46.2 µM | [14] > 100 µM | [20] > 100 µM | [15] > 100 µM | [16] > 100 µM | [18] 30.3 µM | [19] 56.9 µM
